According to ChEMBL document CHEMBL1136372, “Antibacterial activity of quinolone-macrocycle conjugates” (2003):
Values after ≈ are worked out from the molar mass of the structure shown.

Legend:
Staphylococcus aureus = assay: Minimum inhibitory concentration (MIC) against Staphylococcus aureus ATCC 13709; type: functional
Escherichia coli = assay: Minimum inhibitory concentration against Escherichia coli ATCC 25922; type: functional

| Structure (SMILES) | MIC (Staphylococcus aureus) | MIC (Escherichia coli) |
| --- | --- | --- |
| NCC[C@@H]1NC(=O)CCNC(=O)c2cc(NC(=O)c3cnc4ccccc4c3)ccc2OC[C@@H](Cc2ccc(O)cc2)NC1=O | > 100 µM | > 100 µM |
| CCn1cc(C(=O)Nc2ccc3c(c2)C(=O)NCCC(=O)N[C@@H](CCN)C(=O)N[C@@H](Cc2ccccc2)CO3)c(=O)c2ccc(C)nc21 | > 100 µM | 50 µM (≈ 32.7 µg/mL) |
| CCn1cc(C(=O)Nc2ccc3c(c2)C(=O)NCCC(=O)N[C@H](CCN)C(=O)N[C@H](Cc2ccccc2)CO3)c(=O)c2ccc(C)nc21 | > 100 µM | 50 µM (≈ 32.7 µg/mL) |
| NCC[C@@H]1NC(=O)CCNC(=O)c2cc(NC(=O)c3cnccn3)ccc2OC[C@@H](Cc2ccc(O)cc2)NC1=O | > 100 µM | > 100 µM |
| NCC[C@@H]1NC(=O)CCNC(=O)c2cc(NC(=O)Cn3cnc4c(N)ncnc43)ccc2OC[C@@H](Cc2ccc(O)cc2)NC1=O | > 100 µM | > 100 µM |
| CCn1cc(C(=O)Nc2ccc3c(c2)C(=O)NCCC(=O)N[C@@H](CCN)C(=O)N[C@@H](Cc2ccc(O)cc2)CO3)c(=O)c2ccc(C)nc21 | > 100 µM | 50 µM (≈ 33.5 µg/mL) |
| NCC[C@@H]1NC(=O)CCNC(=O)c2cc(NC(=O)Cn3cnc4c(O)nc(N)nc43)ccc2OC[C@@H](Cc2ccc(O)cc2)NC1=O | > 100 µM | > 100 µM |
| CCn1cc(C(=O)Nc2ccc3c(c2)C(=O)NCCC(=O)N[C@H](CCN)C(=O)N[C@@H](Cc2ccccc2)CO3)c(=O)c2ccc(C)nc21 | > 100 µM | 50 µM (≈ 32.7 µg/mL) |
| CCN1CC(CNc2ccc3c(c2)C(=O)NCCC(=O)N[C@@H](CCN)C(=O)N[C@H](Cc2ccc(O)cc2)CO3)C(=O)c2ccc(C)nc21 (some centres not stated) | > 100 µM | > 100 µM |
| NCC[C@@H]1NC(=O)CCNC(=O)c2cc(NC(=O)c3ccc4ccccc4c3)ccc2OC[C@@H](Cc2ccc(O)cc2)NC1=O | > 100 µM | > 100 µM |
| CCn1cc(C(=O)Nc2ccc3c(c2)C(=O)NCCC(=O)N[C@@H](CCN)C(=O)N[C@H](Cc2ccccc2)CO3)c(=O)c2ccc(C)nc21 | > 100 µM | 50 µM (≈ 32.7 µg/mL) |
| CCn1cc(C(=O)Nc2ccc3c(c2)C(=O)NCCC(=O)N[C@@H](CCN)C(=O)N[C@H](Cc2ccc(O)cc2)CO3)c(=O)c2ccc(C)nc21 | > 100 µM | 50 µM (≈ 33.5 µg/mL) |
| CCn1cc(C(=O)O)c(=O)c2ccc(C)nc21 [NALIDIXIC ACID] | 75 µM (≈ 17.4 µg/mL) | 3 µM (≈ 0.697 µg/mL) |

Further lines, results first:

| MIC (Staphylococcus aureus) | MIC (Escherichia coli) | Structure (SMILES) |
| --- | --- | --- |
| > 100 µM | 50 µM (≈ 33.5 µg/mL) | CCn1cc(C(=O)Nc2ccc3c(c2)C(=O)NCCC(=O)N[C@H](CCN)C(=O)N[C@@H](Cc2ccc(O)cc2)CO3)c(=O)c2ccc(C)nc21 |
| > 100 µM | 50 µM (≈ 33.6 µg/mL) | CCN1CC(C(=O)Nc2ccc3c(c2)C(=O)NCCC(=O)N[C@@H](CCN)C(=O)N[C@H](Cc2ccc(O)cc2)CO3)C(=O)c2ccc(C)nc21 (some centres not stated) |
| 13 µM (≈ 10.4 µg/mL) | 3 µM (≈ 2.4 µg/mL) | CC1COc2c(N3CCN(C)CC3)c(F)cc3c2N1CC(C(=O)Nc1ccc2c(c1)C(=O)NCCC(=O)N[C@@H](CCN)C(=O)N[C@H](Cc1ccc(O)cc1)CO2)C3=O (some centres not stated) |
| > 100 µM | 50 µM (≈ 33.5 µg/mL) | CCn1cc(C(=O)Nc2ccc3c(c2)C(=O)NCCC(=O)N[C@H](CCN)C(=O)N[C@H](Cc2ccc(O)cc2)CO3)c(=O)c2ccc(C)nc21 |
| 1.6 µM (≈ 1.26 µg/mL) | 0.2 µM (≈ 0.157 µg/mL) | CN1CCN(c2cc3c(cc2F)C(=O)C(C(=O)Nc2ccc4c(c2)C(=O)NCCC(=O)N[C@@H](CCN)C(=O)N[C@H](Cc2ccc(O)cc2)CO4)CN3C2CC2)CC1 (some centres not stated) |
| 50 µM (≈ 43.6 µg/mL) | 6 µM (≈ 5.23 µg/mL) | CC1COc2c(N3CCN(C)CC3)c(F)cc3c2N1CC(C(=O)N(C)CC(=O)Nc1ccc2c(c1)C(=O)NCCC(=O)N[C@@H](CCN)C(=O)N[C@H](Cc1ccc(O)cc1)CO2)C3=O (some centres not stated) |
| 13 µM (≈ 11.3 µg/mL) | 3 µM (≈ 2.62 µg/mL) | CC1COc2c(N3CCN(C)CC3)c(F)cc3c2N1CC(C(=O)NCCC(=O)Nc1ccc2c(c1)C(=O)NCCC(=O)N[C@@H](CCN)C(=O)N[C@H](Cc1ccc(O)cc1)CO2)C3=O (some centres not stated) |
| 25 µM (≈ 22.1 µg/mL) | 3 µM (≈ 2.66 µg/mL) | CC1COc2c(N3CCN(C)CC3)c(F)cc3c2N1CC(C(=O)NCCCC(=O)Nc1ccc2c(c1)C(=O)NCCC(=O)N[C@@H](CCN)C(=O)N[C@H](Cc1ccc(O)cc1)CO2)C3=O (some centres not stated) |
| 50 µM (≈ 42.9 µg/mL) | 3 µM (≈ 2.57 µg/mL) | CC1COc2c(N3CCN(C)CC3)c(F)cc3c2N1CC(C(=O)NCC(=O)Nc1ccc2c(c1)C(=O)NCCC(=O)N[C@@H](CCN)C(=O)N[C@H](Cc1ccc(O)cc1)CO2)C3=O (some centres not stated) |
| 25 µM (≈ 22.5 µg/mL) | 3 µM (≈ 2.7 µg/mL) | CC1COc2c(N3CCN(C)CC3)c(F)cc3c2N1CC(C(=O)NCCCCC(=O)Nc1ccc2c(c1)C(=O)NCCC(=O)N[C@@H](CCN)C(=O)N[C@H](Cc1ccc(O)cc1)CO2)C3=O (some centres not stated) |
| 25 µM (≈ 22.9 µg/mL) | 3 µM (≈ 2.74 µg/mL) | CC1COc2c(N3CCN(C)CC3)c(F)cc3c2N1CC(C(=O)NCCCCCC(=O)Nc1ccc2c(c1)C(=O)NCCC(=O)N[C@@H](CCN)C(=O)N[C@H](Cc1ccc(O)cc1)CO2)C3=O (some centres not stated) |
| 0.6 µM (≈ 0.199 µg/mL) | 0.08 µM (≈ 0.0265 µg/mL) | O=C(O)c1cn(C2CC2)c2cc(N3CCNCC3)c(F)cc2c1=O [CIPROFLOXACIN] |
| 25 µM (≈ 9.03 µg/mL) | 0.78 µM (≈ 0.282 µg/mL) | CC1COc2c(N3CCN(C)CC3)c(F)cc3c(=O)c(C(=O)O)cn1c23 (configuration not stated) [OFLOXACIN] |
